Measurements reported in patent US10597388B2, “Pyridazinone herbicides” (FMC CORPORATION, priority 2014, dated 2020).

Assays:
Experiment in all cases: Test D controlled growth environment herbicide test, pre- and postemergence
Type in all cases: in vivo
[1] = tested on: chickweed (common chickweed, Stellaria media)
How it was run: (§1)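 Pre-emergence: seeds sown in silt loam soil were sprayed with compound in a non-phytotoxic solvent mix containing surfactant. Post-emergence: plants at 2 to 18 cm (1- to 4-leaf stage) in peat moss/vermiculite medium got the same formulation. Visual 0–100 rating versus controls after 14 to 21 d.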

[2] = tested on: blackgrass (Alopecurus myosuroides)
How it was run: as §1

[3] = tested on: foxtail, green (green foxtail, Setaria viridis)
How it was run: as §1

[4] = tested on: chamomile (scentless chamomile, Matricaria inodora)
How it was run: as §1

[5] = tested on: bluegrass (annual bluegrass, Poa annua)
How it was run: as §1

[6] = tested on: wheat, winter (winter wheat, Triticum aestivum)
How it was run: as §1

[7] = tested on: galium (catchweed bedstraw, Galium aparine)
How it was run: as §1

[8] = tested on: lambsquarters (Chenopodium album)
How it was run: as §1

[9] = tested on: bromegrass, downy (downy bromegrass, Bromus tectorum)
How it was run: as §1

[10] = tested on: kochia (Kochia scoparia)
How it was run: as §1

[11] = tested on: barley, winter (winter barley, Hordeum vulgare)
How it was run: as §1

[12] = tested on: pigweed (Amaranthus retroflexus)
How it was run: as §1

[13] = tested on: field violet (Viola arvensis)
How it was run: as §1

[14] = Postemergence, 31 g ai/ha, scale 0 to 100 (0 no effect, 100 complete control)
[15] = Postemergence, 125 g ai/ha, visual rating on scale 0 (no effect) to 100 (complete control), 14 to 21 d
[16] = Postemergence, 250 g ai/ha, scale 0 to 100 (0 no effect, 100 complete control)
[17] = Preemergence, 62 g ai/ha, scale 0 to 100 (0 no effect, 100 complete control)
[18] = Preemergence, 125 g ai/ha, scale 0 to 100 (0 no effect, 100 complete control)
[19] = Preemergence, 250 g ai/ha, scale 0 to 100, 0 no effect, 100 complete control
[20] = postemergence, 62 g ai/ha, scale 0 to 100, 0 no effect, 100 complete control

Cc1cc(C)c2sc(C)c(-c3c(O)c(C)nn(C)c3=O)c2c1 [Compound 2, 5-hydroxy-2,6-dimethyl-4-(2,5,7-trimethylbenzo[b]thien-3-yl)-3(2H)-pyridazinone]
Chickweed plant response rating [1, 14]: 85
Plant response rating, Chickweed [1, 15]: 100
Plant response rating, Chickweed [1, 16]: 100
Plant response rating (scale of 0 to 100), Chickweed ([1]; Preemergence, 31 g ai/ha): 90
Plant response rating, Chickweed [1, 17]: 100
Plant response rating, Chickweed [1, 18]: 100
Plant response rating, Chickweed [1, 19]: 100
Plant response rating, Chickweed [1, 20]: 95
Blackgrass plant response rating [2, 14]: 65
Plant response rating, Blackgrass [2, 15]: 80
Plant response rating, Blackgrass [2, 16]: 90
Plant response rating (scale of 0 to 100), Blackgrass ([2]; Preemergence, 31 g ai/ha): 65
Plant response rating, Blackgrass [2, 17]: 75
Plant response rating, Blackgrass [2, 18]: 85
Blackgrass plant response rating [2, 19]: 90
Plant response rating, Blackgrass [2, 20]: 70
Foxtail, Green plant response rating [3, 14]: 70
Plant response rating, Foxtail, Green [3, 15]: 95
Plant response rating, Foxtail, Green [3, 16]: 100
Plant response rating (scale of 0 to 100), Foxtail, Green ([3]; Preemergence, 31 g ai/ha): 65
Plant response rating, Foxtail, Green [3, 17]: 100
Plant response rating, Foxtail, Green [3, 18]: 100
Plant response rating, Foxtail, Green [3, 19]: 100
Plant response rating, Foxtail, Green [3, 20]: 80
Chamomile plant response rating [4, 14]: 70
Plant response rating, Chamomile [4, 15]: 90
Plant response rating, Chamomile [4, 16]: 100
Plant response rating (scale of 0 to 100), Chamomile ([4]; Preemergence, 31 g ai/ha): 80
Plant response rating, Chamomile [4, 17]: 100
Plant response rating, Chamomile [4, 18]: 95
Plant response rating, Chamomile [4, 19]: 100
Plant response rating, Chamomile [4, 20]: 80
Bluegrass plant response rating [5, 14]: 5
Plant response rating, Bluegrass [5, 15]: 5
Plant response rating, Bluegrass [5, 16]: 15
Plant response rating (scale of 0 to 100), Bluegrass ([5]; Preemergence, 31 g ai/ha): 0
Plant response rating, Bluegrass [5, 17]: 15
Plant response rating, Bluegrass [5, 18]: 30
Bluegrass plant response rating [5, 19]: 50
Plant response rating, Bluegrass [5, 20]: 10
Wheat, Winter plant response rating [6, 14]: 0
Plant response rating, Wheat, Winter [6, 15]: 5
Plant response rating, Wheat, Winter [6, 16]: 10
Plant response rating (scale of 0 to 100), Wheat, Winter ([6]; Preemergence, 31 g ai/ha): 0
Plant response rating, Wheat, Winter [6, 17]: 0
Plant response rating, Wheat, Winter [6, 18]: 0
Plant response rating, Wheat, Winter [6, 19]: 5
Plant response rating, Wheat, Winter [6, 20]: 0
Galium plant response rating [7, 14]: 85
Plant response rating, Galium [7, 15]: 100
Plant response rating, Galium [7, 16]: 100
Plant response rating (scale of 0 to 100), Galium ([7]; Preemergence, 31 g ai/ha): 100
Plant response rating, Galium [7, 17]: 85
Plant response rating, Galium [7, 18]: 100
Plant response rating, Galium [7, 19]: 100
Plant response rating, Galium [7, 20]: 100
Lambsquarters plant response rating [8, 14]: 90
Plant response rating, Lambsquarters [8, 15]: 95
Plant response rating, Lambsquarters [8, 16]: 100
Plant response rating (scale of 0 to 100), Lambsquarters ([8]; Preemergence, 31 g ai/ha): 15
Plant response rating, Lambsquarters [8, 17]: 60
Plant response rating, Lambsquarters [8, 18]: 100
Plant response rating, Lambsquarters [8, 19]: 100
Plant response rating, Lambsquarters [8, 20]: 90
Bromegrass, Downy plant response rating [9, 14]: 10
Plant response rating, Bromegrass, Downy [9, 15]: 10
Plant response rating, Bromegrass, Downy [9, 16]: 20
Plant response rating (scale of 0 to 100), Bromegrass, Downy ([9]; Preemergence, 31 g ai/ha): 10
Plant response rating, Bromegrass, Downy [9, 17]: 50
Plant response rating, Bromegrass, Downy [9, 18]: 65
Plant response rating, Bromegrass, Downy [9, 19]: 70
Plant response rating, Bromegrass, Downy [9, 20]: 10
Kochia plant response rating [10, 14]: 50
Plant response rating, Kochia [10, 15]: 65
Plant response rating, Kochia [10, 16]: 70
Plant response rating (scale of 0 to 100), Kochia ([10]; Preemergence, 31 g ai/ha): 0
Plant response rating, Kochia [10, 17]: 0
Plant response rating, Kochia [10, 18]: 0
Plant response rating, Kochia [10, 19]: 20
Plant response rating, Kochia [10, 20]: 60
Plant response rating, Barley, Winter [11, 14]: 10
Plant response rating, Barley, Winter [11, 15]: 15
Plant response rating, Barley, Winter [11, 16]: 10
Plant response rating (scale of 0 to 100), Barley, Winter ([11]; Preemergence, 31 g ai/ha): 0
Plant response rating, Barley, Winter [11, 17]: 0
Plant response rating, Barley, Winter [11, 18]: 0
Barley, Winter plant response rating [11, 19]: 0
Plant response rating, Barley, Winter [11, 20]: 10
Pigweed plant response rating [12, 14]: 70
Plant response rating, Pigweed [12, 15]: 85
Plant response rating, Pigweed [12, 16]: 95
Plant response rating (scale of 0 to 100), Pigweed ([12]; Preemergence, 31 g ai/ha): 25
Plant response rating, Pigweed [12, 17]: 50
Plant response rating, Pigweed [12, 18]: 65
Plant response rating, Pigweed [12, 19]: 100
Plant response rating, Pigweed [12, 20]: 80
Field Violet plant response rating [13, 14]: 60
Plant response rating, Field Violet [13, 15]: 75
Plant response rating, Field Violet [13, 16]: 80
Plant response rating (scale of 0 to 100), Field Violet ([13]; Preemergence, 31 g ai/ha): 95
Plant response rating, Field Violet [13, 17]: 100
Plant response rating, Field Violet [13, 18]: 100
Plant response rating, Field Violet [13, 19]: 100
Plant response rating, Field Violet [13, 20]: 85
